In US20250002854A1, “METHODS OF GENERATING POPULATIONS OF TUMOUR-INFILTRATING T CELLS” (LYTIX BIOPHARMA AS, priority 2016, published 2025):
Square brackets hold non-standard residues; d marks the D form. Ends that are not written are not given here. Dip = N[C@H](C(=O)O)C(c1ccccc1)c1ccccc1

Key:
A20, murine lymphoma = assay: LysoTracker DND-26 in non-melanocytic cell line; type: cell-based; details: data not shown
B16F1 cells [1] = assay: Release of cytochrome c (ELISA); type: cell-based, murine; details: 108 μM
Protocol: B16F1 cells were plated onto 96-well culture plates as previously described above for the MTT assay. Cells were treated with 108 μM (4×IC50^4h) for designated time points (30, 60, 90, 120 and 240 minutes), while control cells were preserved in serum-free RPMI-1640 only until the experimental endpoint. Supernatants were collected and diluted 1/5 in a serum-free RPMI 1640 before being evaluated using a Rat/Mouse Cytochrome c Quantikine ELISA kit (R&D Systems, USA), according to the instructions of the manufacturer. The concentration of cytochrome c was calculated by interpolation values on the provided standard curve.

B16F1 melanoma cells = assay: Kill kinetics (MTT); type: cell-based, murine
Protocol: Cells were seeded as previously described for MTT assay, and incubated with LTX-401 solutions for 5, 15, 30, 60, 90, 120 and 240 minutes. Cells were washed once with 100 μl of serum-free RPMI-1640 after incubation, and further incubated in a 10% MTT solution (diluted in a serum-free RPMI-1640) for an additional 2 h.

[2] = previous studies by Ausbaucher et al.; cited from earlier work
B16F1 cells [3] = assay: Release of ATP (luciferin-luciferase); type: cell-based, murine; details: 54 μM, up to 120 min
Protocol: Serum-free RPMI 1640 treated cells functioned as a negative and blank control, respectively. Extracellular levels of ATP were measured at the end of the experiment using a luciferin-based ENLITEN ATP Assay kit (Promega, Madison, WI, USA), in which ATP-driven chemoluminescence was recorded on a Luminescence Microplate Reader (Labsystems Luminoskan®, Finland), and expressed as relative light units (RLU).

A375 cells [4] = assay: Fluorescence measurement of reactive oxygen species (DCFDA); type: cell-based, human; details: 15 minutes of incubation, different concentrations
Protocol: A DCFDA cellular reactive oxygen species detection assay kit was purchased from abcam®, and A375 cells seeded in a 96-well Costar black clear bottom plate with 20,000 cells per well incubated in 37° C. 16 hours prior to DCFDA assay. Cells were washed with a 100 μL/well of pre-warmed PBS one time, and incubated with 20 µM of DCFDA in a buffer solution supplied with the kit at 37° C. in a cell culture incubator for 45 min, and then washed again with a buffer solution of 100 μL/well. […] The fluorescence intensity was determined at an excitation wavelength of 485 nm and an emission wavelength of 530 nm on a FLUOstar Galaxy plate reader.

human A547 cells = assay: TEM of A547 cells, mitochondrial membrane; type: cell-based; details: 10 μg/ml, 60 minutes
A375 cells [5] = assay: Release of HMGB1 (Western blot); type: cell-based, human; details: 35 μM, up to 60 min
Protocol: A375 cells were seeded with 3×10^5 cells/well in 6-well plates in a complete media, and allowed to adhere overnight. Cells were treated with LTX-315 or LTX-328 at 35 μM, and incubated at 37° C. and 5% CO2 for different time points (5, 10, 15, 30, 60 min), and negative controls were serum-free RPMI-1650. Supernatants (S) were collected and centrifuged at 1,400 g for five minutes, and cell lysates (L) were harvested after washing with PBS twice and then subsequently lysed using a 4×Sample buffer (Invitrogen, number), 0.1 M DTT (Sigma number) and water. Supernatants were concentrated using Amicon Ultra 50 K centrifugal filters (Millipore UFC505024), and the cell lysate was sonicated. Both supernatants and lysate were boiled and resolved in a 10% sodium dodecyl sulfate polyacrylamide gel electrophoresis (SDS-PAGE), and then electro transferred to a polyvindiline difluoride (PVDF) membrane (Millipore). The membrane was blocked in 5% milk and incubated with the HMGB1 antibody (rabbit, polyclonal, abcam ab 18256); the membrane was then rinsed several times with TBST, incubated with a horseradish peroxidase (HRP)-conjugated secondary antibody (abcam ab6721), rinsed again with TBST and then developed using WB Luminol Reagent (Santa Cruz Biotechnology, Heidelberg, Germany).

A375 cells [6] = assay: Confocal imaging with Mitotracker (mitochondrial membrane potential); type: cell-based, human; details: short time after peptide treatment; data not shown
Protocol: Fixed cells, mitotracker—Cells were seeded as for live cell imaging, and treated with Mitotracker CMH2XROS (Invitrogen) at […] for 15 minutes prior to peptide treatment. Cells were treated with 17 μM LTX-315, with negative control serum-free RPMI only. After 60 min of incubation, cells were analyzed using a Zeiss microscope.

B16F1 cells [7] = assay: Secondary tumour challenge of animals cured by LTX-315; type: in vivo, C57BL/6 mice
Protocol: Tumour cells were harvested, washed in RPMI-1640 and injected intradermally (i.d.) into the right side of the abdomen in C57BL/6 mice (5×10^4 B16F1 cells per mouse/50 μl RPMI-1640). Palpable tumours (20-30 mm^2) were injected i.t. with single doses of LTX-315 or LTX-328 dissolved in saline (1.0 mg peptide/50 μl saline) once a day for 3 consecutive days, and the vehicle control was saline only (0.9% NaCl in sterile H2O). Tumour size was measured using an electronic caliper and expressed as the area of an ellipse [(maximum dimension/2)×(minimum dimension/2)×π]. Animals were then euthanized when the product of the perpendicular tumour dimensions reached 130 mm^2 or when tumour ulceration developed. […] Animals surviving the i.d. tumour re-challenge were later given a second tumour rechallenge intravenously (i.v.) (2×10^5 cells) through the tail vein. Lungs were harvested on day 19 after the i.v. re-challenge. All mice were monitored for tumour size and survival.

A375 cells [8] = assay: Release of ATP (luciferase bioluminescence); type: cell-based, human; details: 5 minutes, different concentrations
Protocol: The supernatant of LTX-315-treated A375 cells was analyzed using an Enliten ATP luciferase assay kit (Promega, USA). Cells were then seeded as with an ROS assay, and treated with LTX-315 in different incubation times, from 1 to 15 minutes with two parallels, which was then conducted three times. Negative controls were untreated A375 cells exposed to serum-free media alone. Samples were diluted at 1:50 and 1:100, and analyzed with a Luminoscan RT luminometer according to the manufacturer's protocol.

Cl.Cl.NCCNC(=O)C(CN)(CCCc1ccccc1)CCCc1ccccc1 [LTX-401]
LysoTracker DND-26 signal (A20, murine lymphoma): achieved similar results | time at which cytochrome c is present in the supernatant (B16F1 cells [1]): 120 min | cytochrome c in supernatant, peak (B16F1 cells [1]; experimental endpoint): approximately 40 ng/ml | cell survival (B16F1 melanoma cells; 54 μM, after two hours): 50% | time until cellular survival reduced to a minimum (B16F1 melanoma cells; 108 μM): 90 to 120 min | kill ratio (B16F1 melanoma cells; 108 μM, after 15 min): 50% | cell death (B16F1 melanoma cells; 108 μM, two hours after start of treatment): ~100% | mitochondrial membrane potential (TMRE) [2]: did not compromise the mitochondrial membrane potential | extracellular concentration of ATP (B16F1 cells [3]): quickly rose 60 min after initiating treatment

K-K-W-W-K-K-W-Dip-K-NH2 (KKWWKKW[Dip]K-NH2) [LTX-315]
ROS generation (A375 cells [4]): Significant amounts of ROS were generated | effect on mitochondrial membrane (human A547 cells): disintegration of the mitochondrial membrane | HMGB1 translocation from cell lysate to supernatant (A375 cells [5]): gradual translocation from the cell lysate to the supernatant detected | Mitotracker mitochondrial signal (A375 cells [6]): loss of mitochondrial signal | animals with no tumour take (B16F1 cells [7]; i.d. re-challenge): 60% | animals with tumour growth absent (B16F1 cells [7]; i.d. re-challenge with B16F1 cells 4-5 weeks after CR): 15 out of the 25 | CD3+ T cell infiltration of lung tumour foci (B16F1 cells [7]; i.v. re-challenge, histology): significantly more infiltrated by CD3+ T cells | mean # tumour foci (lung) (B16F1 cells [7]; i.v. re-challenge, n=7): 15.86 | ATP in the supernatant (A375 cells [8]): detected in the supernatant as early as after 5 minutes of treatment
